{"source": "ChEMBL document CHEMBL1201862", "about": "“PubChem BioAssay data set” (2004)", "test_in_all_cases": "NCI-60 cell line screen, 48 h", "key": {"786-0": {"test_system": "786-0"}, "CCRF-CEM": {"test_system": "CCRF-CEM"}, "COLO 205": {"test_system": "COLO 205"}, "HCC 2998": {"test_system": "HCC 2998"}, "KM12": {"test_system": "KM12"}, "MOLT-4": {"test_system": "MOLT-4"}, "Malme-3M": {"test_system": "Malme-3M"}, "NCI-H522": {"test_system": "NCI-H522"}, "OVCAR-3": {"test_system": "OVCAR-3"}, "OVCAR-5": {"test_system": "OVCAR-5"}, "OVCAR-8": {"test_system": "OVCAR-8"}, "RXF 393": {"test_system": "RXF 393"}, "SK-MEL-5": {"test_system": "SK-MEL-5"}, "SNB-75": {"test_system": "SNB-75"}, "TK-10": {"test_system": "TK-10"}, "HCT-15": {"test_system": "HCT-15"}, "HT-29": {"test_system": "HT-29"}, "HOP-92": {"test_system": "HOP-92"}}, "note": "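Grown in 96-well plates, cells were treated for 48 hours with each compound at five concentrations. Insufficient inhibition: endpoint recorded as highest concentration tested. At the GI50, growth is halved.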 Active and inactive are the calls of the source. No stated cut-off is given here; in the data, active = GI50 up to about 1.1 µM and inactive = higher."}
{"compound": "COc1ccc(/C=C2\\CN(C)Cc3c2nc(N)nc3-c2ccc(OC)cc2)cc1", "values": [{"measurement": "GI50", "setting": "786-0", "value": "> 100 µM (inactive)"}, {"measurement": "GI50", "setting": "CCRF-CEM", "value": "41.5 µM (inactive)"}, {"measurement": "GI50", "setting": "COLO 205", "value": "95.7 µM (inactive)"}, {"measurement": "GI50", "setting": "HCC 2998", "value": "16.6 µM (inactive)"}, {"measurement": "GI50", "setting": "KM12", "value": "61.2 µM (inactive)"}, {"measurement": "GI50", "setting": "MOLT-4", "value": "30.1 µM (inactive)"}, {"measurement": "GI50", "setting": "Malme-3M", "value": "34.4 µM (inactive)"}, {"measurement": "GI50", "setting": "NCI-H522", "value": "41.3 µM (inactive)"}, {"measurement": "GI50", "setting": "OVCAR-3", "value": "> 100 µM (inactive)"}, {"measurement": "GI50", "setting": "OVCAR-5", "value": "> 100 µM (inactive)"}, {"measurement": "GI50", "setting": "OVCAR-8", "value": "49.3 µM (inactive)"}, {"measurement": "GI50", "setting": "RXF 393", "value": "> 100 µM (inactive)"}, {"measurement": "GI50", "setting": "SK-MEL-5", "value": "26.9 µM (inactive)"}, {"measurement": "GI50", "setting": "SNB-75", "value": "> 100 µM (inactive)"}, {"measurement": "GI50", "setting": "TK-10", "value": "> 100 µM (inactive)"}]}
{"compound": "COC1OC(C)C(OC(=O)C(C)(C)C)C(OS(=O)(=O)c2ccc(C)cc2)C1OS(=O)(=O)c1ccc(C)cc1", "note": "(stereo not given)", "values": [{"measurement": "GI50", "setting": "786-0", "value": "> 100 µM (inactive)"}, {"measurement": "GI50", "setting": "CCRF-CEM", "value": "> 100 µM (inactive)"}, {"measurement": "GI50", "setting": "COLO 205", "value": "> 100 µM (inactive)"}, {"measurement": "GI50", "setting": "HCC 2998", "value": "> 100 µM (inactive)"}, {"measurement": "GI50", "setting": "HCT-15", "value": "> 100", "unit": "µM"}, {"measurement": "GI50", "setting": "HT-29", "value": "> 100 µM (inactive)"}, {"measurement": "GI50", "setting": "KM12", "value": "> 100 µM (inactive)"}, {"measurement": "GI50", "setting": "MOLT-4", "value": "> 100 µM (inactive)"}, {"measurement": "GI50", "setting": "Malme-3M", "value": "> 100 µM (inactive)"}, {"measurement": "GI50", "setting": "NCI-H522", "value": "> 100 µM (inactive)"}, {"measurement": "GI50", "setting": "OVCAR-3", "value": "> 100 µM (inactive)"}, {"measurement": "GI50", "setting": "OVCAR-5", "value": "> 100 µM (inactive)"}, {"measurement": "GI50", "setting": "OVCAR-8", "value": "> 100 µM (inactive)"}, {"measurement": "GI50", "setting": "RXF 393", "value": "> 100 µM (inactive)"}, {"measurement": "GI50", "setting": "SK-MEL-5", "value": "> 100 µM (inactive)"}, {"measurement": "GI50", "setting": "SNB-75", "value": "77.8 µM (inactive)"}]}
{"compound": "COc1cccc(C2=NC(C(C)C)CO2)c1", "note": "(stereo not given)", "values": [{"measurement": "GI50", "setting": "786-0", "value": "> 100 µM (inactive)"}, {"measurement": "GI50", "setting": "CCRF-CEM", "value": "> 100 µM (inactive)"}, {"measurement": "GI50", "setting": "COLO 205", "value": "> 100 µM (inactive)"}, {"measurement": "GI50", "setting": "HCC 2998", "value": "> 100 µM (inactive)"}, {"measurement": "GI50", "setting": "HCT-15", "value": "> 100", "unit": "µM"}, {"measurement": "GI50", "setting": "HT-29", "value": "> 100 µM (inactive)"}, {"measurement": "GI50", "setting": "KM12", "value": "> 100 µM (inactive)"}, {"measurement": "GI50", "setting": "MOLT-4", "value": "> 100 µM (inactive)"}, {"measurement": "GI50", "setting": "Malme-3M", "value": "> 100 µM (inactive)"}, {"measurement": "GI50", "setting": "NCI-H522", "value": "> 100 µM (inactive)"}, {"measurement": "GI50", "setting": "OVCAR-3", "value": "> 100 µM (inactive)"}, {"measurement": "GI50", "setting": "OVCAR-5", "value": "> 100 µM (inactive)"}, {"measurement": "GI50", "setting": "OVCAR-8", "value": "> 100 µM (inactive)"}, {"measurement": "GI50", "setting": "RXF 393", "value": "> 100 µM (inactive)"}, {"measurement": "GI50", "setting": "SK-MEL-5", "value": "> 100 µM (inactive)"}, {"measurement": "GI50", "setting": "SNB-75", "value": "> 100 µM (inactive)"}, {"measurement": "GI50", "setting": "TK-10", "value": "> 100 µM (inactive)"}]}
{"compound": "COc1ccc2c(c1OC)C(=O)C2", "values": [{"measurement": "GI50", "setting": "786-0", "value": "> 100 µM (inactive)"}, {"measurement": "GI50", "setting": "CCRF-CEM", "value": "> 100 µM (inactive)"}, {"measurement": "GI50", "setting": "COLO 205", "value": "> 100 µM (inactive)"}, {"measurement": "GI50", "setting": "HCT-15", "value": "> 100", "unit": "µM"}, {"measurement": "GI50", "setting": "HT-29", "value": "> 100 µM (inactive)"}, {"measurement": "GI50", "setting": "KM12", "value": "> 100 µM (inactive)"}, {"measurement": "GI50", "setting": "MOLT-4", "value": "> 100 µM (inactive)"}, {"measurement": "GI50", "setting": "Malme-3M", "value": "> 100 µM (inactive)"}, {"measurement": "GI50", "setting": "NCI-H522", "value": "> 100 µM (inactive)"}, {"measurement": "GI50", "setting": "OVCAR-8", "value": "> 100 µM (inactive)"}, {"measurement": "GI50", "setting": "RXF 393", "value": "> 100 µM (inactive)"}, {"measurement": "GI50", "setting": "SK-MEL-5", "value": "> 100 µM (inactive)"}, {"measurement": "GI50", "setting": "SNB-75", "value": "> 100 µM (inactive)"}, {"measurement": "GI50", "setting": "TK-10", "value": "> 100 µM (inactive)"}]}
{"compound": "COC1(C)CC2N(C(=O)c3ccccc3)N=C(c3ccccc3)CC2(C)O1", "note": "(stereo not given)", "values": [{"measurement": "GI50", "setting": "786-0", "value": "> 100 µM (inactive)"}, {"measurement": "GI50", "setting": "CCRF-CEM", "value": "84.5 µM (inactive)"}, {"measurement": "GI50", "setting": "HCC 2998", "value": "96.4 µM (inactive)"}, {"measurement": "GI50", "setting": "HCT-15", "value": "> 100", "unit": "µM"}, {"measurement": "GI50", "setting": "HOP-92", "value": "> 100 µM (inactive)"}, {"measurement": "GI50", "setting": "HT-29", "value": "> 100 µM (inactive)"}, {"measurement": "GI50", "setting": "KM12", "value": "> 100 µM (inactive)"}, {"measurement": "GI50", "setting": "MOLT-4", "value": "61.7 µM (inactive)"}, {"measurement": "GI50", "setting": "Malme-3M", "value": "> 100 µM (inactive)"}, {"measurement": "GI50", "setting": "NCI-H522", "value": "> 100 µM (inactive)"}, {"measurement": "GI50", "setting": "OVCAR-3", "value": "> 100 µM (inactive)"}, {"measurement": "GI50", "setting": "OVCAR-5", "value": "> 100 µM (inactive)"}, {"measurement": "GI50", "setting": "OVCAR-8", "value": "> 100 µM (inactive)"}, {"measurement": "GI50", "setting": "SK-MEL-5", "value": "> 100 µM (inactive)"}, {"measurement": "GI50", "setting": "SNB-75", "value": "> 100 µM (inactive)"}]}
{"compound": "Cc1cc(C)nc(Nc2nc3cc([N+](=O)[O-])ccc3[nH]2)n1", "values": [{"measurement": "GI50", "setting": "786-0", "value": "> 100 µM (inactive)"}, {"measurement": "GI50", "setting": "CCRF-CEM", "value": "> 100 µM (inactive)"}, {"measurement": "GI50", "setting": "COLO 205", "value": "> 100 µM (inactive)"}, {"measurement": "GI50", "setting": "HCC 2998", "value": "> 100 µM (inactive)"}, {"measurement": "GI50", "setting": "HCT-15", "value": "> 100", "unit": "µM"}, {"measurement": "GI50", "setting": "HOP-92", "value": "31.1 µM (inactive)"}, {"measurement": "GI50", "setting": "HT-29", "value": "> 100 µM (inactive)"}, {"measurement": "GI50", "setting": "KM12", "value": "> 100 µM (inactive)"}, {"measurement": "GI50", "setting": "MOLT-4", "value": "> 100 µM (inactive)"}, {"measurement": "GI50", "setting": "Malme-3M", "value": "> 100 µM (inactive)"}, {"measurement": "GI50", "setting": "NCI-H522", "value": "> 100 µM (inactive)"}, {"measurement": "GI50", "setting": "OVCAR-3", "value": "> 100 µM (inactive)"}, {"measurement": "GI50", "setting": "OVCAR-5", "value": "> 100 µM (inactive)"}, {"measurement": "GI50", "setting": "OVCAR-8", "value": "> 100 µM (inactive)"}, {"measurement": "GI50", "setting": "SK-MEL-5", "value": "> 100 µM (inactive)"}, {"measurement": "GI50", "setting": "TK-10", "value": "> 100 µM (inactive)"}]}
{"compound": "NC(=O)N1N=C2c3ccccc3CC[C@@H]2C1c1ccccc1", "note": "(stereo not given in full)", "values": [{"measurement": "GI50", "setting": "786-0", "value": "> 100 µM (inactive)"}, {"measurement": "GI50", "setting": "CCRF-CEM", "value": "> 100 µM (inactive)"}, {"measurement": "GI50", "setting": "COLO 205", "value": "> 100 µM (inactive)"}, {"measurement": "GI50", "setting": "HCC 2998", "value": "> 100 µM (inactive)"}, {"measurement": "GI50", "setting": "HCT-15", "value": "> 100", "unit": "µM"}, {"measurement": "GI50", "setting": "HT-29", "value": "> 100 µM (inactive)"}, {"measurement": "GI50", "setting": "KM12", "value": "> 100 µM (inactive)"}, {"measurement": "GI50", "setting": "MOLT-4", "value": "69 µM (inactive)"}, {"measurement": "GI50", "setting": "Malme-3M", "value": "> 100 µM (inactive)"}, {"measurement": "GI50", "setting": "NCI-H522", "value": "61 µM (inactive)"}, {"measurement": "GI50", "setting": "OVCAR-3", "value": "> 100 µM (inactive)"}, {"measurement": "GI50", "setting": "OVCAR-5", "value": "> 100 µM (inactive)"}, {"measurement": "GI50", "setting": "OVCAR-8", "value": "> 100 µM (inactive)"}, {"measurement": "GI50", "setting": "RXF 393", "value": "> 100 µM (inactive)"}, {"measurement": "GI50", "setting": "SK-MEL-5", "value": "88.7 µM (inactive)"}, {"measurement": "GI50", "setting": "SNB-75", "value": "36.6 µM (inactive)"}, {"measurement": "GI50", "setting": "TK-10", "value": "> 100 µM (inactive)"}]}
